In ChEMBL document CHEMBL1131487, “Acetamidine lysine derivative, N-(5(S)-amino-6,7-dihydroxyheptyl)ethanimidamide dihydrochloride: a highly selective inhibitor of human inducible nitric oxide synthase” (J Med Chem, 1998):

Legend:
[1] = biological target: Nitric oxide synthase (inducible and endothelial) (Homo sapiens) (UniProt P35228+P29474); assay: Selectivity index determined by the ratio of IC50 of eNOS to the iNOS; format: protein assay
Nitric oxide synthase 3 = biological target: T1, Nitric oxide synthase 3 (Homo sapiens, UniProt P29474); assay: Compound was evaluated for the Inhibition of endothelial isoform of Endothelial nitric oxide synthase (eNOS)enzyme
T1 sequence (P29474 whole entry): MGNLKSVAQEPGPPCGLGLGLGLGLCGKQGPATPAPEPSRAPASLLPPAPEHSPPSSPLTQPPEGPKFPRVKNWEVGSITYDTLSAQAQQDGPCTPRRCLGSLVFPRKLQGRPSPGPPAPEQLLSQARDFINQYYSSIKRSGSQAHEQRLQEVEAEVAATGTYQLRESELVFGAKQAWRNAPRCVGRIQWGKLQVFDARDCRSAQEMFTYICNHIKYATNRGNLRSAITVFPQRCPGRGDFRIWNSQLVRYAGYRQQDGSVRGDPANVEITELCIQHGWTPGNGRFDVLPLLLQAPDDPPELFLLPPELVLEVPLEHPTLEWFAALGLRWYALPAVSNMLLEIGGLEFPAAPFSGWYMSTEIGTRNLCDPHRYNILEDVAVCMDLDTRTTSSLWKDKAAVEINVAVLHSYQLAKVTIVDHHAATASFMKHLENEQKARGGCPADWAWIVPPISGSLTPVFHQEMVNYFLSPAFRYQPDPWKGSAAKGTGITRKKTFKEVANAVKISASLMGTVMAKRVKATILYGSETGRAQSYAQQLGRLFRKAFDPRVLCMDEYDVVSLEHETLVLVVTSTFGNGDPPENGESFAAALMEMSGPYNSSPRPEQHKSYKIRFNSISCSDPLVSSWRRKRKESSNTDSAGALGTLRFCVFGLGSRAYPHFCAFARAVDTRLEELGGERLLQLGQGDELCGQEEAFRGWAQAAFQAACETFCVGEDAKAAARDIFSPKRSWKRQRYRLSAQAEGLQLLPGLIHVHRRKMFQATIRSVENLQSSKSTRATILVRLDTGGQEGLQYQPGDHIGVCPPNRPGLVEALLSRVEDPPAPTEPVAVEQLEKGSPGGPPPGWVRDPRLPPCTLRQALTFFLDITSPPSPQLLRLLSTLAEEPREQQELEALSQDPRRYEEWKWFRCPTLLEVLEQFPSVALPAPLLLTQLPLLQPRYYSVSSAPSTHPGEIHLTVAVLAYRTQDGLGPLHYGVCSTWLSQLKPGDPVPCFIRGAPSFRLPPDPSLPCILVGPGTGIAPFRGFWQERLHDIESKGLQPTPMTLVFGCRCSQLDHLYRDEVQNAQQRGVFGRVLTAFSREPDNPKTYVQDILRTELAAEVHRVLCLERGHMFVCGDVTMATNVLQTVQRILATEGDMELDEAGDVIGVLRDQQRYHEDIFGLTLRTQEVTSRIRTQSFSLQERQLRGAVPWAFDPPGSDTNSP

[2] = biological target: Nitric oxide sythases; iNOS & nNOS (Homo sapiens) (UniProt P29475+P35228); assay: Selectivity index determined by the ratio of IC50 of nNOS to the iNOS; format: protein assay
[3] = biological target: T2, Nitric oxide synthase, inducible (Homo sapiens, UniProt P35228); assay: Compound was evaluated for the Inhibition of induced isoform of Inducible nitric oxide synthase
Nitric oxide synthase 1 [4] = biological target: T3, Nitric oxide synthase 1 (Homo sapiens, UniProt P29475); assay: Compound was evaluated for the Inhibition of Neuronal nitric oxide synthase
[5] = biological target: T4, Nitric oxide synthase 3 (Homo sapiens) (UniProt P29474); assay: Compound was evaluated for the Inhibition of endothelial isoform of Endothelial nitric oxide synthase (eNOS)enzyme at 100 uM concentration
T4 sequence (whole entry): T1 sequence (P29474 whole entry)

Nitric oxide synthase 1 [6] = biological target: T3, Nitric oxide synthase 1; assay: Compound was evaluated for the Inhibition of Neuronal nitric oxide synthase at 100 uM concentration
[7] = biological target: T2, Nitric oxide synthase, inducible; assay: Compound was evaluated for the Inhibition of induced isoform of Inducible nitric oxide synthase at 100 uM concentration

T2 sequence (P35228 whole entry, canonical isoform): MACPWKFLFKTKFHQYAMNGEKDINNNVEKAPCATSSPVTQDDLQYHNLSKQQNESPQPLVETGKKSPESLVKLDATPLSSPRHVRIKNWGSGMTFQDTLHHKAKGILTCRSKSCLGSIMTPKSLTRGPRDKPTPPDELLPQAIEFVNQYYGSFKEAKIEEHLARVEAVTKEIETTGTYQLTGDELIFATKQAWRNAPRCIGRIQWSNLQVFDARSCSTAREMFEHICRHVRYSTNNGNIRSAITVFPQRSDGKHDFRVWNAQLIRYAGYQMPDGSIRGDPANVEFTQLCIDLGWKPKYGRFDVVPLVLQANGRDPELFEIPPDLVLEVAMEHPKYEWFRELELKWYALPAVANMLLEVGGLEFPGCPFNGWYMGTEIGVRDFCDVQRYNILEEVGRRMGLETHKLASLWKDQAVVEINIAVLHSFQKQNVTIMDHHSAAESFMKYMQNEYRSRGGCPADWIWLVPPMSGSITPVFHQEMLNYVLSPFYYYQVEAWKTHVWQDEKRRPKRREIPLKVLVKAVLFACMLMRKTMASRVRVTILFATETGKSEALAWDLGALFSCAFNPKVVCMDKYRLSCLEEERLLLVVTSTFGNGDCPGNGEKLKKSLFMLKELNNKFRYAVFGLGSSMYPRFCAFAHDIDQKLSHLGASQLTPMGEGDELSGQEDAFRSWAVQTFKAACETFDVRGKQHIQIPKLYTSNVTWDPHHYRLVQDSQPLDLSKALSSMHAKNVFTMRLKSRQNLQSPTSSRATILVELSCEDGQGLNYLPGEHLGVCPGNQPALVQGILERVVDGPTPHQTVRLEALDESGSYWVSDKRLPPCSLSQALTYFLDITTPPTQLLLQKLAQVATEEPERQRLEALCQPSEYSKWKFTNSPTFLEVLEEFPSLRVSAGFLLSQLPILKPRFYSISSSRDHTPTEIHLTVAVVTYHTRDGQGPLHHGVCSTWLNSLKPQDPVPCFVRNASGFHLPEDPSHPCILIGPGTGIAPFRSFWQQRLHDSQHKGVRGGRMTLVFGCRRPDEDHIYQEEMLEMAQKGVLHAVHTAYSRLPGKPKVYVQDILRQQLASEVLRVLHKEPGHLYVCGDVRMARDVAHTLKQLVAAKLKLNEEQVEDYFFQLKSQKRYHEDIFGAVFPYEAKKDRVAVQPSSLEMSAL
Chain of Nitric oxide synthase (inducible and endothelial) (Homo sapiens) (P35228 whole entry, looked up, one chain of several, canonical isoform): as the sequence (P35228 whole entry, canonical isoform) above
T3 sequence (P29475 whole entry, canonical isoform): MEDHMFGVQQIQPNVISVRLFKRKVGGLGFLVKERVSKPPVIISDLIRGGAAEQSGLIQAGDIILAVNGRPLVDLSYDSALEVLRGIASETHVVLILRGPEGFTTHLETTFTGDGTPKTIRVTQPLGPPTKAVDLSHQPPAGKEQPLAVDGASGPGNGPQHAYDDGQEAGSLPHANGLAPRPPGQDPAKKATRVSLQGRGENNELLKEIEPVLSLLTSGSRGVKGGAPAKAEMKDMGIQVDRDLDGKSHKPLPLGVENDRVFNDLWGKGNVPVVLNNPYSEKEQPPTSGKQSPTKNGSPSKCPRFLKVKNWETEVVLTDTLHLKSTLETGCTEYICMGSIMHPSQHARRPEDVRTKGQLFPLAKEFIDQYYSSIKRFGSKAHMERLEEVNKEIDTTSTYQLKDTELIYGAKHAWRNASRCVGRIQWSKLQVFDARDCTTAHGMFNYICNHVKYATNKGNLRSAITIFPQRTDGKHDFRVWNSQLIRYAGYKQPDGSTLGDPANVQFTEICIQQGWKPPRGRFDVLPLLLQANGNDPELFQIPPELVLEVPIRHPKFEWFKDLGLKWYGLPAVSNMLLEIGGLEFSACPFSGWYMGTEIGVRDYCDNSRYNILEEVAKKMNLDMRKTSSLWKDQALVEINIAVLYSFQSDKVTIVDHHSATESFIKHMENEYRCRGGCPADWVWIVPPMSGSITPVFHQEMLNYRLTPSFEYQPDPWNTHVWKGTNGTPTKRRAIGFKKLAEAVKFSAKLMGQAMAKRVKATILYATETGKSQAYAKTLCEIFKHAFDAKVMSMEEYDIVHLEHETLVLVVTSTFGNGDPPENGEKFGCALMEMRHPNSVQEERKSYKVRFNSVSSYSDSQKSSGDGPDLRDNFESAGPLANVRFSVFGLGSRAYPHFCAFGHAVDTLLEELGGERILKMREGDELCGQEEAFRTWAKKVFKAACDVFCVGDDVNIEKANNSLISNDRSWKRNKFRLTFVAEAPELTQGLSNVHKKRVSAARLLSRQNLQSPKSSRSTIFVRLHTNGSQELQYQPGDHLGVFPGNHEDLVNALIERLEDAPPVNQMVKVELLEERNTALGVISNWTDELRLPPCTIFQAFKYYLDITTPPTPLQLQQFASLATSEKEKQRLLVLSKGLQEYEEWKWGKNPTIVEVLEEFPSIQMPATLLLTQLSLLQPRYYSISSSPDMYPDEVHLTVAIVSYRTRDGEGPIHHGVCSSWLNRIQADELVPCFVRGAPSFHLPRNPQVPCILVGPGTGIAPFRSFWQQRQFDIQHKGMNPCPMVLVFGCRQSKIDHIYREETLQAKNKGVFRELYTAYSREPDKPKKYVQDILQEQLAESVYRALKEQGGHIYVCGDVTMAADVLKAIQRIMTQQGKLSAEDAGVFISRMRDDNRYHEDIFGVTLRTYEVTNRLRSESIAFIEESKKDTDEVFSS
Chain of Nitric oxide sythases; iNOS & nNOS (Homo sapiens) (P29475 whole entry, looked up, canonical isoform): as the sequence (P29475 whole entry, canonical isoform) above
Chain of Nitric oxide sythases; iNOS & nNOS (Homo sapiens) (P35228 whole entry, looked up, canonical isoform): as the sequence (P35228 whole entry, canonical isoform) above

Row | SMILES | Selectivity index [1] | IC50 (Nitric oxide synthase 3) [µM] | Selectivity index [2] | IC50 [3] [µM] | IC50 (Nitric oxide synthase 1 [4]) [µM] | inhibition [5] [%] | inhibition (Nitric oxide synthase 1 [6]) [%] | inhibition [7] [%]
1 | CC(=N)NCCCC[C@H](N)C(=O)O [L-NIL] | 30 | 138 | 12 | 5 | – | – | – | –
2 | CC(=N)NCCCC[C@H](N)[C@@H](O)CO | 700 | 8420 | 12 | 12 | 150 | – | – | –
3 | CC(=N)NCCCC[C@H](N)[C@H](O)CO | – | – | – | – | – | 0 | 13 | 49
